Data on 16 compounds can be found in PubChem BioAssay (NCI).

Molecules are shown by their SMILES. Values joined by “and” are separate entries in the source; they are usually repeats but may differ in a detail not shown here. Equal values may be shown once.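 Grown in 96-well plates, cells were treated for 48 hours with each compound at five concentrations. Insufficient inhibition: endpoint recorded as highest concentration tested. GI50 = concentration required for 50% inhibition of growth. Definition used: TGI = concentration required for complete inhibition of growth.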

Test systems include OVCAR-3 ovarian; COLO 205 colon; SNB-19 CNS; SF-539 CNS; SW-620 colon; UACC-62 melanoma; OVCAR-5 ovarian; SN12C renal; HOP-92 NSCLC.
Experiment in all cases: inhibition of tumour cell growth, NCI panel, 48 h

`CCOC(=O)c1ccc(NC(=O)SCCC(=O)O)cc1`: the TGI in the test on OVCAR-3 ovarian, in the test with COLO 205 colon, in the test with SNB-19 CNS, in the test with SF-539 CNS, with SW-620 colon and in the test on UACC-62 melanoma was above 100 µM each time. Also, the TGI in the test with OVCAR-5 ovarian and in the test with SN12C renal was above 100 µM throughout.
As for `c1ccc2c(c1)[nH]c1c2nc2ncccn21`, the TGI in the test on SNB-19 CNS, in the test on HOP-92 NSCLC, in the test on SF-539 CNS, in the test on SW-620 colon, in the test with UACC-62 melanoma and in the test with OVCAR-5 ovarian was above 100 µM in each case. This compound also showed a TGI in the test on SN12C renal above 100 µM.
With `O=S(O)CCCSSc1ccccc1`, the TGI with OVCAR-3 ovarian is above 100 µM; in the test with COLO 205 colon, above 100 µM; in the test on SNB-19 CNS, above 100 µM; in the test on SF-539 CNS, 62.9 µM; in the test with SW-620 colon, above 100 µM; in the test on UACC-62 melanoma, above 100 µM. In addition, the TGI with OVCAR-5 ovarian and in the test with SN12C renal was above 100 µM in each case.
In the case of `CCOC(=O)/C(C#N)=C1/C(O)=C(C(=O)OC)C(C(=O)OC)=C1C(=O)OC`, the TGI in the test with OVCAR-3 ovarian, in the test on COLO 205 colon, in the test on SNB-19 CNS, in the test on HOP-92 NSCLC, in the test on SF-539 CNS and with SW-620 colon was above 100 µM each time. Besides, the TGI with UACC-62 melanoma, in the test with OVCAR-5 ovarian and with SN12C renal was above 100 µM throughout.
`O=C(NCC(O)CNC(=O)C(F)(F)F)C(F)(F)F`: the TGI in the test on OVCAR-3 ovarian, in the test with COLO 205 colon, in the test with SNB-19 CNS, with HOP-92 NSCLC, in the test on SF-539 CNS and with SW-620 colon was above 100 µM each time. Besides, the TGI with UACC-62 melanoma, in the test on OVCAR-5 ovarian and in the test on SN12C renal was above 100 µM in each case.
`COc1ccc(OC)c(-c2cc(=O)c3c(OC)c(OC)c(OC)c(OC)c3o2)c1`: the TGI was 75.3 µM in the test with OVCAR-3 ovarian; 31.6 µM with COLO 205 colon; above 100 µM with SNB-19 CNS; 57.7 µM in the test on HOP-92 NSCLC; above 100 µM in the test on SF-539 CNS; above 100 µM with SW-620 colon. Further, the TGI with UACC-62 melanoma was 64.3 µM; in the test with OVCAR-5 ovarian it was above 100 µM; in the test on SN12C renal it was above 100 µM.
For `Cc1cc2c(c3oc(C4(C)OC4C4OC4C)cc(=O)c13)C(=O)c1c(O)c(C3CC(C)(N(C)C)C(O)C(C)O3)cc(C3CC(N(C)C)C(O)C(C)O3)c1C2=O` (stereo unspecified), the TGI with SNB-19 CNS is 0.0713 µM and 0.00863 µM and 0.0158 µM; in the test on UACC-62 melanoma, 0.00016 µM and 0.000228 µM; with OVCAR-5 ovarian it was 0.000244 µM and 0.00111 µM. In addition, the GI50 was 0.000258 µM with HOP-92 NSCLC; 0.000117 µM in the test on SF-539 CNS; 0.0489 nM and 0.111 nM in the test on SW-620 colon.
As to `Cc1nn(C)cc1P(=S)(c1ccccc1)c1ccccc1`, the TGI in the test with OVCAR-3 ovarian, with COLO 205 colon, in the test with SNB-19 CNS, in the test on HOP-92 NSCLC, with SF-539 CNS and in the test with SW-620 colon was above 100 µM throughout. The TGI with UACC-62 melanoma, with OVCAR-5 ovarian and in the test with SN12C renal was above 100 µM each time.
With `NC(N)=NS(=O)(=O)c1ccc(Nc2c3ccccc3nc3c(C(=O)Nc4ccc(S(N)(=O)=O)cc4)ccc(Cl)c23)cc1`, the TGI in the test with OVCAR-3 ovarian, in the test on COLO 205 colon, with SNB-19 CNS, in the test on HOP-92 NSCLC, in the test on SF-539 CNS and in the test on SW-620 colon was above 100 µM throughout. Further, the TGI in the test with UACC-62 melanoma, with OVCAR-5 ovarian and with SN12C renal was above 100 µM throughout.
As to `CC1OC(OC2C(CO)OC(O[C@H]3CC[C@@]4(C)C(=CC[C@H]5[C@@H]6C[C@@H]7O[C@]8(CC[C@@H](C)CN8)[C@@H](C)[C@@H]7[C@@]6(C)CC[C@@H]54)C3)C(O)C2O)C(O)C(O)C1O` (stereo partly specified), the TGI with OVCAR-3 ovarian, with COLO 205 colon, in the test with SNB-19 CNS, in the test with HOP-92 NSCLC, with SF-539 CNS and with SW-620 colon was above 100 µM throughout. Besides, the TGI in the test on UACC-62 melanoma, in the test on OVCAR-5 ovarian and in the test with SN12C renal was above 100 µM throughout.
On to `Fc1cccc2c1cc1ccc3cccc4ccc2c1c34`, for which the TGI with OVCAR-3 ovarian, in the test on COLO 205 colon, in the test with SNB-19 CNS, in the test with HOP-92 NSCLC, in the test on SF-539 CNS and in the test on SW-620 colon was above 100 µM each time. Besides, the TGI in the test on UACC-62 melanoma, in the test with OVCAR-5 ovarian and with SN12C renal was above 100 µM in each case.
With `O=C1c2ccccc2C(=O)N1C/C=C/CO`, the TGI with OVCAR-3 ovarian, in the test with COLO 205 colon, in the test on SNB-19 CNS, in the test with SF-539 CNS, in the test with SW-620 colon and in the test on UACC-62 melanoma was above 100 µM throughout. In the test with SN12C renal, this compound returned a TGI above 100 µM.
On to `CCOc1ccccc1NC(=O)CCc1n[nH]c(=S)o1`, for which the TGI with OVCAR-3 ovarian, in the test with SNB-19 CNS, with HOP-92 NSCLC, with SF-539 CNS, with SW-620 colon and in the test on UACC-62 melanoma was above 100 µM throughout. In the test on SN12C renal, this compound gave a TGI above 100 µM.
Turning to `COC(=O)c1ccc(Cl)cc1NC(=O)C1CCCCC1`, the TGI with OVCAR-3 ovarian, with COLO 205 colon, in the test on SNB-19 CNS, in the test with HOP-92 NSCLC, with SF-539 CNS and in the test with SW-620 colon was above 100 µM each time. The TGI with OVCAR-5 ovarian and in the test with SN12C renal was above 100 µM each time.
On to `CC[C@@H]1C[C@H]2CC3c4[nH]c5ccc(O)cc5c4CCN(C2)C31`, for which the TGI with OVCAR-3 ovarian, in the test on COLO 205 colon, in the test on SNB-19 CNS, in the test with HOP-92 NSCLC, in the test with SF-539 CNS and with SW-620 colon was above 100 µM throughout. Moreover, the TGI in the test with UACC-62 melanoma, in the test with OVCAR-5 ovarian and in the test with SN12C renal was above 100 µM each time.
`O=C(COC(=O)c1cccc2c(=O)c3ccccc3[nH]c12)Nc1ccccc1`: the TGI is above 100 µM in the test on OVCAR-3 ovarian; 51.6 µM in the test on COLO 205 colon; above 100 µM with SNB-19 CNS; above 100 µM in the test on HOP-92 NSCLC; above 100 µM with SF-539 CNS; above 100 µM in the test with SW-620 colon. Moreover, the TGI was 68 µM in the test on UACC-62 melanoma and above 100 µM with SN12C renal.
